The values that follow come from US10011589B2, “Treatments for gastrointestinal conditions” (BOARD OF REGENTS, THE UNIVERSITY OF TEXAS SYSTEM, priority 2014, dated 2018).

Series [1] concerns C. difficile strains R20291 and BAA-1875. Briefly: MIC testing against C. difficile strains R20291 and BAA-1875. The format is cell-based, Clostridium difficile. As to conditions: Clostridioides difficile, BAA1875; C. difficile R20291 and BAA-1875 (FIG. 8); 24 h, 37° C., anaerobic. As to the method: The synthesized compounds were initially tested against four virulent C. difficile strains: CD1803 (toxinotype III, 95 NAP1), CD1875 (toxinotype V, NAP7), R20291 (ribotype 027—from A. Sonenshein, Tufts University, USA), and BAA-1875 (ribotype 078, from American Type Culture Collection-ATCC). The activities (i.e. Minimum Inhibitory Concentrations-MICs) of test compounds were determined in 24 or 96 well microtitre plates using bacterial inocula of 10^6 cfu/mL and were defined as the lowest concentration of test compound that inhibited visible growth after 24 h of incubation at 37° C. in an A35 anaerobic chamber (Don-Whitley).

Series [2] concerns C. difficile strain ATCC 43596. In words: MIC against infecting strain ATCC 43596. As to conditions: Clostridioides difficile, ATCC43596. The format is cell-based, Clostridium difficile.
The subject of series [3] is Caco-2 monolayer. Briefly: Caco-2 cell permeability assay. As to conditions: apical to basolateral. The format is in vitro ADME. As to the method:
The permeability co-efficient (Papp A-B) of the compounds were calculated and the ability of compounds to move from the apical to the basolateral side of Caco-2 monolayer is shown in FIG. 16.
In general terms: Caco-2 cells form a polarised layer with tight junctions and transporters.

The subject of series [4] is C. difficile strain ATCC 43596. Briefly: Hamster model of CDI (efficacy). Format: in vivo, Golden Syrian hamsters. As to conditions: 50 mg/kg once daily, days 1 to 5, oral. As to the method: Golden Syrian hamsters (˜100 g) from Charles River Laboratories were separately housed in sterile cages and maintained on sterile food and water. On day −1, animals were subcutaneously injected with clindamycin phosphate solution (50 mg/kg, from Hospira). After 20 h (day 0), hamsters were infected by oral gavage with 10^6 cfu of the C. difficile strain ATCC 43596 grown in Sporulation Medium and washed once with pre-reduced PBS; 15. […] After 5 days of treatment, surviving hamsters were monitored for up to 30 days for signs of disease as described by Anton et al. All moribund animals were euthanized, as well as those that survived the post-treatment monitoring period (30 days); ceca were recovered from all animals. All animal experiments were approved by The Institutional Animal Care and Use Committee of The University of Texas at Arlington.

The nature of series [5]: Pharmacokinetic study in hamsters, plasma. Format: in vivo. To be noted: male, Syrian, po, hamster, 100 mg/kg in PEG-400:water (85:15). As to the method: Pharmacokinetic studies were assessed in male Syrian hamsters (˜100 g), from Charles-River, with each carrying a pre-implanted jugular vein cannula. Hamsters (n=5 per group) were fasted overnight and for the duration of the experiment (7 h). After collecting pre-dose blood samples (200 μL), animals were dosed with 100 mg/kg of compounds formulated in PEG-400:water (85:15). At various time points blood samples were collected into heparinized coated tubes that were centrifuged at 3000 rpm for 10 min to yield plasma, which was stored at −20° C. After dosing animals (n=3 per time point) as above, animals were humanely sacrificed at time points and their cecal contents collected and stored at −20° C. For plasma samples, 25 μL of plasma was placed in 384-well analytical plate and quenched by the addition of 50 μL of acetonitrile containing 4 mg/L warfarin as an internal standard. The plate was sealed, shaken at 600 rpm for 10 min, and then was centrifuged at 4000 rpm for 20 min. 15 μL of the supernatant was transferred to a new analytical 96-well plate and mixed with 100 μL of MilliQ water. The samples were analyzed by injecting 5 μL onto a Waters UPLC/SQD LC-MS/MS system. The cecal samples were processed by adding 100 μL of acetonitrile containing 4 mg/L of warfarin (internal standard) to the microfuge tubes containing cecal matter (˜50 mg). The suspension was vortexed for 10 sec, sonicated for 1 min and then centrifuged at 10,000 rpm for 10 min. Aliquots (50 μL) of the collected supernatants were then transferred to a 384-well plate and analyzed by high resolution mass spectroscopy using Waters XEVO QTOF LCMS.

Series [6] deals with Clostridium difficile infection. As to conditions: severe CDI; cited from earlier work.

Values after ≈ are worked out from the molar mass of the structure shown. Bounds are passed on as bounds.

Turning to `Cc1ncc([N+](=O)[O-])n1CCO` [metronidazole, reference compound], the MIC – broadly, the least concentration at which growth counts as inhibited – in series [1] worked out at 0.25 µg/mL (≈ 1.46 µM); in series [2], 0.125 µg/mL (≈ 0.73 µM). Moreover, the “Caco-2 permeation in words” value in series [3] was “highly permeable”. For the same compound, the “survival, maximum days post-infection” value in series [4] is reported as at most 10 days. The highest concentration (Cmax) (commonly the highest concentration seen after dosing) in series [5] came out at 51 µg/mL. The Tmax (commonly the time at which the peak concentration occurs) in series [5] was 1 h. Moreover, in series [5] (read-out: total exposure (AUC) in plasma), the AUC (commonly concentration integrated over time) was found to be 135 µg·h/mL. Also, the “patients relapsing following therapy” value in series [6] was “more than 25%”.
